Assay results: patent US20050107447A1, “Novel lysophosphatidic acid receptor agonists and antagonists” (priority 2003, published 2005)
Entries after “also recorded” stand apart in the source; their conditions may differ.

What was measured:
LPP1 (PAP2a) phosphatase = target: T1, LPP1 (PAP2a) phosphatase (Homo sapiens, UniProt O14494); experiment: LPP inhibition, competition with 50 nM [32P]LPA; type: biochemical; conditions: 0.1, 1.0 and 10.0 mM vs 50 nM [32P]LPA
T1 sequence (O14494 1-284): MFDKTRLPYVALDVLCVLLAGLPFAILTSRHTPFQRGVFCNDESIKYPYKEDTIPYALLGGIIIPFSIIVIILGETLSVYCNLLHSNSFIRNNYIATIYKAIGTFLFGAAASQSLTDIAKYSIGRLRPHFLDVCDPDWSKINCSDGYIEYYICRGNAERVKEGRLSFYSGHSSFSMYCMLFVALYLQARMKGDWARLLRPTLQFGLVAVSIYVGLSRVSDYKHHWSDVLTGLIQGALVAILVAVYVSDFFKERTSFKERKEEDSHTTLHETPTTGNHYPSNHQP
Experimental: (§1) NOHPP was also tested for activity at the three cloned LPPs. Although the phosphonate head group eliminates the possibility of NOHPP acting as a substrate, it is possible that the compound could be a competitive inhibitor.

LPP2 (PAP2c) phosphatase = target: T2, LPP2 (PAP2c) phosphatase (Homo sapiens, UniProt O43688); experiment: LPP inhibition, competition with 50 nM [32P]LPA; type: biochemical; conditions: 0.1, 1.0 and 10.0 mM vs 50 nM [32P]LPA
T2 sequence (O43688 1-288): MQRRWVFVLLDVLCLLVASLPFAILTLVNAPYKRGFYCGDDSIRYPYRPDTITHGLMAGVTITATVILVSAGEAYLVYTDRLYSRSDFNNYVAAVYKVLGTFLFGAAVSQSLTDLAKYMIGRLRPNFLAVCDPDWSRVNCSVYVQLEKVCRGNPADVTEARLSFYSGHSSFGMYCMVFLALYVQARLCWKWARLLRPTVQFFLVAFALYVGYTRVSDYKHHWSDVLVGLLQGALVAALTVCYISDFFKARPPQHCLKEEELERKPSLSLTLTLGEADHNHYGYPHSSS
Experimental: as §1

LPP3 (PAP2b) phosphatase = target: T3, LPP3 (PAP2b) phosphatase (Homo sapiens, UniProt O14495); experiment: LPP inhibition, competition with 50 nM [32P]LPA; type: biochemical; conditions: for Rank order potency of LPP inhibition: LPP3 vs LPP1 vs LPP2
T3 sequence (O14495 1-311): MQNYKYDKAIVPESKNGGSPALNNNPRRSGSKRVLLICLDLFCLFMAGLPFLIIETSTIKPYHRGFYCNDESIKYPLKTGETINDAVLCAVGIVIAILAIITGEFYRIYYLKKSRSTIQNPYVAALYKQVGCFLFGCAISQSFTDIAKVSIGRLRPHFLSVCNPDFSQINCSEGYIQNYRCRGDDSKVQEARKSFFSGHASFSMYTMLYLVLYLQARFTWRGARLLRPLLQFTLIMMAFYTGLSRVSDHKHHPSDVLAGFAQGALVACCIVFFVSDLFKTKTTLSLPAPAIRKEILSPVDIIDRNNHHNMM
Experimental: as §1

LPA2 [1] = target: T4, LPA2 (Homo sapiens, UniProt Q9HBW0); experiment: GTP[γ35S] binding, LPA2 transfected HEK293T cell membranes; type: biochemical; design: expressed in transfected cells; host or cells: HEK293T (transient, calcium phosphate)
T4 sequence (Q9HBW0 whole entry): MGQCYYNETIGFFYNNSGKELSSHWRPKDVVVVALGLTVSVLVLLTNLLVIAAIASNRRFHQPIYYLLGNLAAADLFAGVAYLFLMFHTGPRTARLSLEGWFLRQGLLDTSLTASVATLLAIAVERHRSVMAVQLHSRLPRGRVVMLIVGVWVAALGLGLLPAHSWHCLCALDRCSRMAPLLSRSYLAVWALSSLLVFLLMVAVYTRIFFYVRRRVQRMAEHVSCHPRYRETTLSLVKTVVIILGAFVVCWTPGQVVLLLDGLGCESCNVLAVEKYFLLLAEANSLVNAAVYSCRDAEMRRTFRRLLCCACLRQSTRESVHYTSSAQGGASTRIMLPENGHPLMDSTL
Experimental: (§2) The appropriate receptor plasmid DNA (encoding mouse LPA1, human LPA2 or human LPA3) was mixed with equal amounts of expression plasmids (pcDNA3) encoding a mutated (C351F) rat Gi2a, cow β1, and γ2 proteins and these DNAs were used to transfect monolayers of HEK293T cells (where ‘T’ indicates expression of the SV-40 virus large T antigen) using the calcium phosphate precipitate method. After about 60 hours, cells were harvested, membranes were prepared, aliquoted and stored at −70° C. until use.
(§3) The GTP[35 γS] assay was performed as described by us previously. Membranes containing 5 ug of protein were incubated in 0.1 ml GTP-binding buffer (in mM: HEPES 50, NaCl 100, MgCl2 10, pH7.5) containing […], […], 0.1 nM GTP[35 γS] (1200 Ci/mmol), and indicated lipid(s) for 30 minutes at 30° C. Samples were analyzed for membrane-bound radionuclide using a Brandel Cell Harvester (Gaithersburg, Md.).
(§4) The X-intercept of the linear transformation is equal to the inverse log of the κ1.
(§5) Membranes prepared from these cells are used to measure GTPγ[^35S] binding as a function of test compound concentration. The resulting dose-response curves provide relative potency (EC50) and efficacy, (Emax) for the test compounds.

LPA3 [2] = target: T5, LPA3 (Homo sapiens, UniProt Q9UBY5); experiment: GTP[γ35S] binding, LPA3 transfected HEK293T cell membranes; type: biochemical; design: expressed in transfected cells; host or cells: HEK293T (transient, calcium phosphate)
T5 sequence (Q9UBY5 1-353): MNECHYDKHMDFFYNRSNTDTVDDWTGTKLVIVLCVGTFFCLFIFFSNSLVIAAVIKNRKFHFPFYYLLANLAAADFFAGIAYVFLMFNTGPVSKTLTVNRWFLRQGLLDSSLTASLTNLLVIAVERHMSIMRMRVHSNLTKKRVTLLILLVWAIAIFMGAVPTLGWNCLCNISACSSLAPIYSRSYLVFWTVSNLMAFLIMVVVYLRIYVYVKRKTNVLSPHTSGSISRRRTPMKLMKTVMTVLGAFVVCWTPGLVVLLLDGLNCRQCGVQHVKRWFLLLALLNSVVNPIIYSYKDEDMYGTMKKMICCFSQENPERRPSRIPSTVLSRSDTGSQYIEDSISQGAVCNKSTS
Experimental: as §2, §3, §4, §5

LPA1 [3] = target: T6, LPA1 (Mus musculus, UniProt P61793); experiment: GTP[γ35S] binding, LPA1 transfected HEK293T (or RH7777) cell membranes; type: biochemical; design: expressed in transfected cells; host or cells: HEK293T (transient, with G protein plasmids); some results from RH7777 rat hepatoma membranes transfected with LPA1 DNA only
T6 sequence (P61793 whole entry): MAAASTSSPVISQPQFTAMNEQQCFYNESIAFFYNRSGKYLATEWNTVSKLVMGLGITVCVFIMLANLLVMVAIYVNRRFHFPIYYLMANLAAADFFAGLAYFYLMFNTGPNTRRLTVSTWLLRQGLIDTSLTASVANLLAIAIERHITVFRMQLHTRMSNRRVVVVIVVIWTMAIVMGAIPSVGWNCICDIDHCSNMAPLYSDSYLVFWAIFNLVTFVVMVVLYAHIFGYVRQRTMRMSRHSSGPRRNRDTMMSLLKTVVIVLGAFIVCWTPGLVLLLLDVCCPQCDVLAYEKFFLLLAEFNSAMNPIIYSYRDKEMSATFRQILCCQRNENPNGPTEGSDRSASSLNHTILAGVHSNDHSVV
Experimental: as §2, §3, §4, §5

human platelets = experiment: Aggregation of human platelets; type: cell-based; conditions: concentrations up to 10 micromolar
MDA MB-231 cells = experiment: Calcium mobilization through endogenous LPA receptors in MDA MB-231 cells; type: cell-based; conditions: 1 μM
Experimental: (§6) wls-b8L and the other phosphonates were also tested also for activity in three whole cell assays. […] Finally, the activity of wls-b8L in activating a chloride conductance in Xenopus laevis ooctyes was measured.

[4] = test system: endogenous LPA receptor of Xenopus laevis oocytes; experiment: Chloride conductance in Xenopus laevis oocytes, endogenous receptor; type: cell-based; conditions: uninjected oocytes
Experimental: as §6

LPA1 [5] = target: T6, LPA1; experiment: cAMP accumulation in RH7777 cells stably expressing LPA1; type: cell-based; design: expressed in transfected cells; conditions: concentration of 1 μM
Experimental: Assays for cAMP accumulation were conducted on populations of 5×10^5 cells stimulated with […] in the presence of the phosphodiesterase inhibitor isomethylbutylxanthine (IBMX) for 15 minutes at 30° C. cAMP was measured by automated radioimmunoassay.
Rat hepatoma RH7777 cell monolayers were transfected with the mLPA1 plasmid DNA using the calcium phosphate precipitate method and clonal populations expressing the neomycin phosphotransferase gene were selected by addition of geneticin (G418) to the culture media. The RH7777 cells were grown in monolayers at 37° C. in a 5% CO02/95% air atmosphere in growth media consisting of: 90% MEM, 10% fetal bovine serum, 2 mM glutamine and 1 mM sodium pyruvate.
as §6

LPA3 [6] = target: T5, LPA3; experiment: Chloride conductance in Xenopus oocytes injected with human LPA3 mRNA; type: cell-based; design: expressed in transfected cells; host or cells: Xenopus laevis oocytes injected with mRNA; conditions: 10 μM
Experimental: as §6

LPA2 [7] = target: T4, LPA2; experiment: Chloride conductance in Xenopus oocytes injected with human LPA2 mRNA; type: cell-based; design: expressed in transfected cells; host or cells: Xenopus laevis oocytes injected with mRNA; conditions: 10 μM
Experimental: as §6

Inhibition of LPP1 (LPP1 (PAP2a) phosphatase) | Inhibition of LPP2 (LPP2 (PAP2c) phosphatase) | Inhibition of LPP3 (LPP3 (PAP2b) phosphatase; 0.1, 1.0 and 10.0 mM vs 50 nM [32P]LPA) | Rank order potency of LPP inhibition (LPP3 (PAP2b) phosphatase) | Activation of chloride conductance [4] | Inhibition of cAMP accumulation (agonist efficacy) (LPA1 [5]) | Activation of chloride conductance (LPA3 [6]) | Activation of chloride conductance (LPA2 [7]) | SMILES | Rank order potency of LPP inhibition (LPP3 (PAP2b) phosphatase; listed as VPC12031) | Agonist activity/efficacy at LPA2 (LPA2 [1]; compared to LPA) | Potency at LPA2 relative to LPA (LPA2 [1]; vs 1-oleoyl LPA) | Agonist activity/efficacy at LPA3 (LPA3 [2]; compared to LPA) | Potency at LPA3 relative to LPA (LPA3 [2]; vs 1-oleoyl LPA) | Agonist activity/efficacy at LPA1 (LPA1 [3]; compared to LPA) | Potency at LPA1 relative to LPA (LPA1 [3]; vs 1-oleoyl LPA) | Aggregation of human platelets (human platelets) | Calcium mobilization (MDA MB-231 cells) | Receptor-type selectivity of agonist activity (LPA1 vs LPA2, LPA3) (LPA1 [3]; GTPγ[35S] binding)
to a lesser extent | inactive | inhibited | LPP3>LPP1>>LPP2 |  |  |  |  | CCCCCCCC/C=C\CCCCCCCC(=O)NCCC(O)P(=O)(O)O (racemic) [NOHPP, (9Z)-N-(rac-3-hydroxy-3-phosphonopropyl)Octadec-9-enamide] | markedly better at the PAP2b (LPP3) than PAP2a (LPP1) | as efficacious as; also recorded: fully efficacious | somewhat less potent; also recorded: about one log order less potent | far less efficacious; also recorded: little activity | distinctly less potent; also recorded: greater than two log orders less potent | as efficacious as; also recorded: fully efficacious | somewhat less potent; also recorded: about one log order less potent |  |  | 
 |  |  |  | does not evoke this response | fully efficacious | very modest response | very modest response | CCCCCCCC/C=C\CCCCCCCC(=O)NCCCP(=O)(O)O [wls-b8L, (9Z)-N-(3-phosphonopropyl)Octadec-9-enamide] |  |  |  |  |  |  |  | does not elicit aggregation | inactive | more potent and efficacious at LPA1 than at either LPA2 or LPA3; also recorded: distinctly more selective
